In patent US12686665B2, “Bicyclic fused ring derivative or salt thereof and pharmaceutical composition comprising same” (YUHAN CORPORATION, priority 2021, dated 2026):
Where a name gives a salt, the structure may show the parent alone.

Assays:
Format in all cases: biochemical
[1] = target: T1, recombinant human Lysyl Oxidase-Like 2 (LOXL2) (Homo sapiens, UniProt Q9Y4K0); experiment: Amplex Red HRP-coupled amine oxidase assay, recombinant human LOXL2; settings: 60 min incubation with enzyme at 37° C., putrescine substrate, read-out: Inhibitory activity (IC50, nM) human LOXL2
T1 construct: purchased R&D systems
T1 sequence (Q9Y4K0 26-774): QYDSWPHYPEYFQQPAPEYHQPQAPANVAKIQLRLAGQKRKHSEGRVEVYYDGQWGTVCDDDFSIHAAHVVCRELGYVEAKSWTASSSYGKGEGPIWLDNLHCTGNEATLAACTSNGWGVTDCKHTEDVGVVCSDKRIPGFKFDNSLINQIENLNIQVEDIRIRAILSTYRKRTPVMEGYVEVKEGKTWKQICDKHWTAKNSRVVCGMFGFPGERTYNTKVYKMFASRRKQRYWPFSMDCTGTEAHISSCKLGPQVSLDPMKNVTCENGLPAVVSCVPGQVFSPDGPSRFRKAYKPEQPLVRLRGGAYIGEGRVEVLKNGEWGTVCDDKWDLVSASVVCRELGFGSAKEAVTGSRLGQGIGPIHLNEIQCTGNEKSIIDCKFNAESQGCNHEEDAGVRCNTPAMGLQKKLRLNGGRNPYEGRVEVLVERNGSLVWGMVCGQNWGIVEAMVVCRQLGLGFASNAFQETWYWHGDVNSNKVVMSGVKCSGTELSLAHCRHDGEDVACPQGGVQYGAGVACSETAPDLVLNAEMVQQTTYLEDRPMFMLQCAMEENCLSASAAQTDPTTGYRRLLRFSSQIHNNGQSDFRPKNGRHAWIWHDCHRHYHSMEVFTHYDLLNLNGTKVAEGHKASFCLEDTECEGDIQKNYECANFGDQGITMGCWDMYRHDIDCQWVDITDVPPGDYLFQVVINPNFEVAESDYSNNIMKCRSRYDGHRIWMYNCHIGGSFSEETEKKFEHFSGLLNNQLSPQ
Procedure, shortened: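 Putrescine substrate (30 mM) in 50 mM sodium phosphate pH 7.4, 37 °C; compounds preincubated 60 min with enzyme, 1% DMSO final, six-point curves. H2O2 detected via 400 μM Amplex Red/2 U/mL HRP, fluorescence (ex 530/em 590 nm) after 1 h; IC50 from four-parameter logistic fit of % signal reduction.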

[2] = target: T2, recombinant human MAO-A (monoamine oxidase-A) (Homo sapiens, UniProt P21397); experiment: Amplex Red HRP-coupled amine oxidase assay, recombinant human MAO-A; settings: 0.5 mM tyramine substrate, read-out: Inhibitory activity (IC50, nM) MAO-A
T2 construct: purchased Sigma-Aldrich
T2 sequence (P21397 1-527): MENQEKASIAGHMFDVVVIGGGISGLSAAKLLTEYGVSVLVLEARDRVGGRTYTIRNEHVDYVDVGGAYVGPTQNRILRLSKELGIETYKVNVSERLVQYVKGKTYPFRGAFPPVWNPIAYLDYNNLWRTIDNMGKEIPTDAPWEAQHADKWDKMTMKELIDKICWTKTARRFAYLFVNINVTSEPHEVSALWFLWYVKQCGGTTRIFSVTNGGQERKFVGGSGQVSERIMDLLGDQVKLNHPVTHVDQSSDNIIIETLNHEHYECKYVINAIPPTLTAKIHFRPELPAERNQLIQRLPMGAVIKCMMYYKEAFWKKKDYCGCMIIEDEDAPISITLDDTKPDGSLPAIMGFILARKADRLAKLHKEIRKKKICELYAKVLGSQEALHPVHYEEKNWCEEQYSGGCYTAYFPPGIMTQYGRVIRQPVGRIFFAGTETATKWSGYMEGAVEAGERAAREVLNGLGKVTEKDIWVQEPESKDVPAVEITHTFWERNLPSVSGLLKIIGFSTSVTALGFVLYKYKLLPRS
Procedure, shortened: (§1)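 Enzyme preincubated 60 min at 37 °C with compound (six-point curve, 1% DMSO final) in 50 mM sodium phosphate pH 7.4, then Amplex Red 400 μM and HRP 2 U/mL added with substrate: MAO-A 0.5 mM tyramine, MAO-B 1 mM benzylamine, DAO 1 mM putrescine. Resorufin fluorescence read after 1 h; IC50 by four-parameter logistic fit.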

[3] = target: T3, recombinant human MAO-B (monoamine oxidase-B) (Homo sapiens, UniProt P27338); experiment: Amplex Red HRP-coupled amine oxidase assay, recombinant human MAO-B; settings: 1 mM benzylamine substrate, read-out: Inhibitory activity (IC50, nM) MAO-B
T3 construct: purchased Sigma-Aldrich
T3 sequence (P27338 1-520): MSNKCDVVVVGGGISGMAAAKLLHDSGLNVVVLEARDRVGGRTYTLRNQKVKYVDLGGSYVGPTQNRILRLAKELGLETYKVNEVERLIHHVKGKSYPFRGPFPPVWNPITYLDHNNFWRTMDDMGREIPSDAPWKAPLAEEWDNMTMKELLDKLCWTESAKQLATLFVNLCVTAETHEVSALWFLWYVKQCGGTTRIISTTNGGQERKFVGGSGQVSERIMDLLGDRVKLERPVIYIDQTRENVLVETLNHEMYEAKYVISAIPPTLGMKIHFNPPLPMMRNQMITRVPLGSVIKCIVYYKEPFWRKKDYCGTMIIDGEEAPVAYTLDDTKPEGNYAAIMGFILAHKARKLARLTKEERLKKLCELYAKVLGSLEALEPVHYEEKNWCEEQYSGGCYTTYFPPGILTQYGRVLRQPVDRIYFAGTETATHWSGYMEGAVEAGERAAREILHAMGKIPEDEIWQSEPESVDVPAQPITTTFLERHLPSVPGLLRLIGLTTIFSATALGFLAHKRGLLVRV
Procedure, shortened: as §1

[4] = target: T4, recombinant human DAO (diamine oxidase) (Homo sapiens, UniProt P19801); experiment: Amplex Red HRP-coupled amine oxidase assay, recombinant human DAO; settings: 1 mM putrescine substrate, read-out: Inhibitory activity (IC50, nM) DAO
T4 construct: purchased R&D systems
T4 sequence (P19801 20-751): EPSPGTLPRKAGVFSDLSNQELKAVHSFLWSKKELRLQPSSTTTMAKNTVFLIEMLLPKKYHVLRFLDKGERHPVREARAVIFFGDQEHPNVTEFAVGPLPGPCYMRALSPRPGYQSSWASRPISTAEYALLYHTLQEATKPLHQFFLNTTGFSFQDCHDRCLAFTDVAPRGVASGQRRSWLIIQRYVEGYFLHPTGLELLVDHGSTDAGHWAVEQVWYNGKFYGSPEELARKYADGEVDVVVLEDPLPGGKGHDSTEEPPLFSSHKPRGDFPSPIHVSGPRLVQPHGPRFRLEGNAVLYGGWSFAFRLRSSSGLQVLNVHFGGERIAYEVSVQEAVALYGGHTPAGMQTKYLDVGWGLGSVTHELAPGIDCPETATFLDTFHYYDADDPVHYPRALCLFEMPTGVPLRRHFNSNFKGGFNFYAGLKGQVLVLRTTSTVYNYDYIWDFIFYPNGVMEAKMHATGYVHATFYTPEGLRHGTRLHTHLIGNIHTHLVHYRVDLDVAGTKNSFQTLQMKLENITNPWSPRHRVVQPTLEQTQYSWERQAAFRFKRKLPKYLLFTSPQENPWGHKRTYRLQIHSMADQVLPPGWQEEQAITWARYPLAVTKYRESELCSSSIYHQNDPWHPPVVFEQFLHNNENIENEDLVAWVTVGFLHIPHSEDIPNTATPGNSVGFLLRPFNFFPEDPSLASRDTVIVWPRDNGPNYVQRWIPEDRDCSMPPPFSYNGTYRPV
Procedure, shortened: as §1

| Compound | IC50 [1] [nM] | IC50 [2] [nM] | IC50 [3] [nM] | IC50 [4] [nM] |
| --- | --- | --- | --- | --- |
| CCN(CC)S(=O)(=O)c1ccc(OC)c(-c2cc(C(=O)OC)cc3c2nnn3C/C(F)=C/CN)c1 [Example 119, methyl (Z)-1-(4-amino-2-fluorobut-2-en-1-yl)-4-(5-(N,N-diethylsulfamoyl)-2-methoxyphenyl)-1H-benzo[d][1,2,3]triazol-6-carboxylate hydrochloride] | 47.3 | > 100000 | > 100000 | 14500 |
| NC/C=C(\F)Cn1cnc2c(-c3cccnc3)cc(C(F)(F)F)cc21 [Example 172, (Z)-3-fluoro-4-(4-(pyridin-3-yl)-6-(trifluoromethyl)-1H-benzo[d]imidazol-1-yl)but-2-en-1-amine hydrochloride] | 311 | 17800 | 51600 | 3520 |
| CNS(=O)(=O)c1ccc(OC)c(-c2cc(C#N)cc3c2ncn3C/C(F)=C/CN)c1 [Example 183, (Z)-3-(1-(4-amino-2-fluorobut-2-en-1-yl)-6-cyano-1H-benzo[d]imidazol-4-yl)-4-methoxy-N-methylbenzenesulfonamide hydrochloride] | 35.1 | > 100000 | > 100000 | 1820 |
| NC/C=C(\F)Cn1cnc2c(-c3cccc(S(=O)(=O)NC4CC4)c3)cc(F)cc21 [Example 9, (Z)-3-(1-(4-amino-2-fluorobut-2-en-1-yl)-6-fluoro-1H-benzo[d]imidazol-4-yl)-N-cyclopropylbenzenesulfonamide hydrochloride] | 39 | 48600 | > 100000 | 3100 |
| Cc1nc2c(-c3cccc(S(=O)(=O)N4CCCC4)c3)cccc2n1C/C(F)=C/CN [Example 60, (Z)-3-fluoro-4-(2-methyl-4-(3-(pyrrolidin-1-ylsulfonyl)phenyl)-1H-benzo[d]imidazol-1-yl)but-2-en-1-amine hydrochloride] | 92 | 64200 | > 100000 | 636 |
| CCc1nc2c(-c3cccc(S(=O)(=O)N(C)C)c3)cccc2n1C/C(F)=C/CN [Example 84, (Z)-3-(1-(4-amino-2-fluorobut-2-en-1-yl)-2-ethyl-1H-benzo[d]imidazol-4-yl)-N,N-dimethyl benzenesulfonamide hydrochloride] | 65 | 65000 | > 100000 | 6690 |
| CN(C)S(=O)(=O)c1cccc(-c2cccc3c2nnn3C/C(F)=C/CN)c1 [Example 112, (Z)-3-(1-(4-amino-2-fluorobut-2-en-1-yl)-1H-benzo[d][1,2,3]triazol-4-yl)-N,N-dimethylbenzenesulfonamide hydrochloride] | 15 | > 100000 | 26500 | 32100 |
| COC(=O)c1cc(-c2cccc(S(C)(=O)=O)c2)c2nc(C)n(C/C(F)=C/CN)c2c1 [Example 67, methyl (Z)-1-(4-amino-2-fluorobut-2-en-1-yl)-2-methyl-4-(3-(methylsulfonyl)phenyl)-1H-benzo[d]imidazol-6-carboxylate hydrochloride] | 83 | > 100000 | > 100000 | 646 |
| CNS(=O)(=O)c1cccc(-c2cc(F)cc3c2ncn3C/C(F)=C/CN)c1 [Example 10, (Z)-3-(1-(4-amino-2-fluorobut-2-en-1-yl)-6-fluoro-1H-benzo[d]imidazol-4-yl)-N-methylbenzenesulfonamide hydrochloride] | 22 | 65500 | > 100000 | 3920 |
| CC(=O)c1ccc(F)c(-c2cc(C(F)(F)F)cc3c2ncn3C/C(F)=C/CN)c1 [Example 169, (Z)-1-(3-(1-(4-amino-2-fluorobut-2-en-1-yl)-6-(trifluoromethyl)-1H-benzo[d]imidazol-4-yl)-4-fluorophenyl)ethan-1-one hydrochloride] | 273 | 26900 | > 100000 | 5400 |
| COc1ccc(S(=O)(=O)NC2CC2)cc1-c1cccc2c1nnn2C/C(F)=C/CN [Example 108, (Z)-3-(1-(4-amino-2-fluorobut-2-en-1-yl)-1H-benzo[d][1,2,3]triazol-4-yl)-N-cyclopropyl-4-methoxybenzenesulfonamide hydrochloride] | 42 | > 100000 | > 100000 | > 100000 |
| CNS(=O)(=O)c1cccc(-c2cccc3c2nc(C(F)(F)F)n3C/C(F)=C/CN)c1 [Example 53, (Z)-3-(1-(4-amino-2-fluorobut-2-en-1-yl)-2-(trifluoromethyl)-1H-benzo[d]imidazol-4-yl)-N-methylbenzenesulfonamide hydrochloride] | 68 | > 100000 | > 100000 | > 100000 |
| CNS(=O)(=O)c1cccc(-c2cccc3c2nnn3C/C(F)=C/CN)c1 [Example 111, (Z)-3-(1-(4-amino-2-fluorobut-2-en-1-yl)-1H-benzo[d][1,2,3]triazol-4-yl)-N-methylbenzenesulfonamide hydrochloride] | 35 | > 100000 | > 100000 | 30700 |
